Several values for one entry are separate records, joined by “and”; a condition that tells them apart may be missing. Equal values may be shown once.

T1 sequence (O75460 19-977): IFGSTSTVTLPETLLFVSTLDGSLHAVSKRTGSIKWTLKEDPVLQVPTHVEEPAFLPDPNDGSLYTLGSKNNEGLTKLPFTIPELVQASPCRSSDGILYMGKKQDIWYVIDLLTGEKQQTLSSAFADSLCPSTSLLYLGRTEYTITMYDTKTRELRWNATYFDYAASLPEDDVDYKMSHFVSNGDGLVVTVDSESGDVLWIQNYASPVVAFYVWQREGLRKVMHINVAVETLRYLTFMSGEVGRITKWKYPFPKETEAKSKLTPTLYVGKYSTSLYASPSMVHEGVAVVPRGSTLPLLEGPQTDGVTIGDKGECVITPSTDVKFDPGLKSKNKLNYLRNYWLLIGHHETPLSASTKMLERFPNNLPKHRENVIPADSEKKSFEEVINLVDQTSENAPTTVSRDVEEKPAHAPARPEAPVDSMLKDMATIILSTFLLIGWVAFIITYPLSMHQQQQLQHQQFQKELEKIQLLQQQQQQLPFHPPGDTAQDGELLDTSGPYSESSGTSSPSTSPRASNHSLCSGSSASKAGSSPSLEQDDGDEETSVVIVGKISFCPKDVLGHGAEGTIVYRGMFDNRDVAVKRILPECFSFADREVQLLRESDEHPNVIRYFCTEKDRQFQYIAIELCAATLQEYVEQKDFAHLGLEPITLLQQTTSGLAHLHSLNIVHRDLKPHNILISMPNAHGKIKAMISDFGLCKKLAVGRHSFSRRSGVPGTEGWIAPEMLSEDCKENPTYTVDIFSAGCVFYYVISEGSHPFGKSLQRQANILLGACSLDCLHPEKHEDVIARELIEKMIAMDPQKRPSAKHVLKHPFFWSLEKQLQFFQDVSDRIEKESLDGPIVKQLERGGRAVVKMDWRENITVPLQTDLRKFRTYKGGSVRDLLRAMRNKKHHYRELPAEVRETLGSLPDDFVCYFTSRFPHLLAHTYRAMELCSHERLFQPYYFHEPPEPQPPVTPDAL

In one assay the test system is myeloid dendritic cells. Nature of the assay: Lipid accumulation (BODIPY 493/503) in myeloid dendritic cells exposed to ovarian cancer ascites supernatants. Type of assay: cell-based, mouse.
Conditions: not given
Consider vitamin E, for which the intracellular lipid accumulation entry is reported as “suppressed”.

Another assay concerns the target T1, IRE1α (Homo sapiens, UniProt O75460).
T1 construct: purchased SignalChem
In words: In vitro FRET assay of IRE1α endoribonuclease activity (XBP1 RNA hairpin probe). The note with it: SignalChem IRE1α protein 2 nM, fluorescence read over 30 minutes. It is filed as biochemical. An excerpt:
To evaluate potential small molecule IRE1 inhibitors, a Förster resonance energy transfer (FRET)-based small molecule IRE1 screening system was used. In brief, a small XBP1-mimetic RNA hairpin containing sequence features required for IRE1α-mediated splicing has been synthesized with the fluorophore 6FAM attached to the 5′ end and the quenching dye Black Hole Quencher 1 (BHQ1) attached to the 3′ end. When the hairpin is intact, 6FAM fluorescence is completely absorbed by BHQ1; however, IRE1α-mediated cleavage of the RNA hairpin leads to an increase in the fluorescence signal. The inventors also incorporated a point mutant version of this same RNA hairpin that is resistant to IRE1α-mediated cleavage to control for non-specific RNAse contamination (FIG. 2).
To perform the in vitro FRET assay, 1× complete assay buffer (CAB; […], 50 mM sodium citrate pH 7.15, 1 mM magnesium acetate, 0.02% tween 20) was used to dilute SignalChem IRE1α protein to a final concentration of 2 nM. Selected compounds were serially diluted with DMSO in a non-binding black 384-well plate for a total of 15 μl in each well. 2 μl of the serially diluted compound or DMSO control were then added to new wells containing 98 μl of 1×CAB, for a total volume of 100 μl, 10 μl of which were then transferred to wells of a new plate. 5 μof the diluted IRE1α was then added to each well. 5 μl of a […] XBP1 RNA probe was then added to each well. Fluorescence was then read over 30 minutes in kinetic mode (485/515 nm).
Two RNA probes were used, XBP1 wildtype (CAUGUCCGCAGCACAUG; SEQ ID NO: 1) which is able to be spliced by active IRE1α or XBP1 mutant (CAUGUCCCCAGCACAUG; SEQ ID NO: 2) which is unable to be spliced. Each probe contained a 5′ 6-FAM modification and a 3′ IOWA Black FQ modification, […]
One may read the EC50 as the concentration at which the effect is half-maximal. In the case of `CN1CCN(Cc2ccc(NC(=O)Nc3cc(C#Cc4cccnc4)n(C)n3)cc2C(F)(F)F)CC1` [Compound A1], the EC50 was at most 5 µM.
In the case of `CN1CCN(Cc2ccc(NC(=O)Nc3cc(C#Cc4ccc(N)nc4)n(C)n3)cc2C(F)(F)F)CC1` [Compound A2], the EC50 was at most 5 µM.
Regarding `CN1CCN(Cc2ccc(NC(=O)Nc3cc(C#Cc4cnc5cccnn45)n(C)n3)cc2C(F)(F)F)CC1` [Compound A3], the EC50 is at most 5 µM.
As to `CN1CCN(Cc2ccc(NC(=O)Nc3cc(C#Cc4cnc5ccccn45)n(C)n3)cc2C(F)(F)F)CC1` [Compound A4], the half-maximal effective concentration (EC50) is at most 5 µM.
Compound `CN1CCN(Cc2ccc(NC(=O)Nc3cc(C#Cc4cnc5cnccn45)n(C)n3)cc2C(F)(F)F)CC1` [Compound A5] came in with an EC50 of at most 5 µM.
Consider `CN1CCN(Cc2ccc(NC(=O)Nc3cc(C#Cc4cncc5nccn45)n(C)n3)cc2C(F)(F)F)CC1` [Compound A6], for which the EC50 is at most 5 µM.
On the same count and under the same terms, the same measure for `CN1CCN(Cc2ccc(NC(=O)Nc3cc(C#Cc4ccnc(N)c4)n(C)n3)cc2C(F)(F)F)CC1` [Compound A7]: 5 to 50 µM.
As to `COc1cc(C#Cc2cc(NC(=O)Nc3ccc(CN4CCN(C)CC4)c(C(F)(F)F)c3)nn2C)ccn1` [Compound A8], the EC50 was ≤ 5 µM and 5 to 50 µM.
The compound `CN1CCN(Cc2ccc(NC(=O)Nc3cc(C#Cc4cnc(N)cn4)n(C)n3)cc2C(F)(F)F)CC1` [Compound A9] showed an EC50 of at most 5 µM.
With `CN1CCN(Cc2ccc(NC(=O)Nc3cc(C#Cc4ccncc4)n(C)n3)cc2C(F)(F)F)CC1` [Compound A10], the EC50 was at most 5 µM.
On the same count and under the same terms, next, `CN1CCN(Cc2ccc(NC(=O)Nc3cc(C#Cc4cc(N)[nH]n4)n(C)n3)cc2C(F)(F)F)CC1` [Compound A11]: at most 5 µM; `CN1CCN(Cc2ccc(NC(=O)Nc3cc(C#Cc4cn[nH]c4)n(C)n3)cc2C(F)(F)F)CC1` [Compound A12]: at most 5 µM; `CN1CCN(Cc2ccc(NC(=O)Nc3cc(C#Cc4cncn4C)n(C)n3)cc2C(F)(F)F)CC1` [Compound A13]: at most 5 µM.
As for `CN1CCN(Cc2ccc(NC(=O)Nc3cc(C#Cc4n[nH]c5cccnc45)n(C)n3)cc2C(F)(F)F)CC1` [Compound A14], the EC50 is at most 5 µM.
On to `CN1CCN(Cc2ccc(NC(=O)Nc3cc(C#Cc4cc[nH]c(=O)c4)n(C)n3)cc2C(F)(F)F)CC1` [Compound A15], for which the EC50 lay in the range of 5 to 50 µM.
On to `CN1CCN(Cc2ccc(NC(=O)Nc3cc(C#Cc4ccccn4)n(C)n3)cc2C(F)(F)F)CC1` [Compound A16], for which the EC50 was at most 5 µM.
Compound `CN1CCN(Cc2ccc(NC(=O)Nc3cc(C#Cc4ccc(C#N)nc4)n(C)n3)cc2C(F)(F)F)CC1` [Compound A17] returned an EC50 of at most 5 µM.
`CN1CCN(Cc2ccc(NC(=O)Nc3cc(C#Cc4ccc(N)cc4)n(C)n3)cc2C(F)(F)F)CC1` [Compound A18] showed an EC50 of 50 to 100 µM.
On the same count and under the same terms, the same measure for `CN1CCN(Cc2ccc(NC(=O)Nc3cc(C#Cc4cnccn4)n(C)n3)cc2C(F)(F)F)CC1` [Compound A19]: at most 5 µM.
Compound `Cn1nc(NC(=O)Nc2cccc(C(F)(F)F)c2)cc1C#Cc1ccc(N)nc1` [Compound A20] yielded an EC50 of at most 5 µM.
On the same count and under the same terms, the same measure for `CN1CCN(Cc2ccc(NC(=O)Nc3cc(C#Cc4cncc(N)c4)n(C)n3)cc2C(F)(F)F)CC1` [Compound A21]: at most 5 µM; for `Cn1nc(NC(=O)Nc2ccc(CN3CCN(CCO)CC3)c(C(F)(F)F)c2)cc1C#Cc1ccc(N)nc1` [Compound A22]: at most 5 µM; for `CN1CCN(Cc2ccc(NC(=O)Nc3nnc(C#Cc4ccc(N)nc4)s3)cc2C(F)(F)F)CC1` [Compound A23]: at most 5 µM.
Take `Cn1nc(NC(=O)Nc2ccc(CN3CCCCC3)c(C(F)(F)F)c2)cc1C#Cc1ccc(N)nc1` [Compound A24]: the EC50 was 5 to 50 µM.
`Cn1nc(NC(=O)Nc2ccc(CN3CCOCC3)c(C(F)(F)F)c2)cc1C#Cc1ccc(N)nc1` [Compound A25] displayed an EC50 of 5 to 50 µM.

For the origin of these results see patent publication US20170252350A1, “SMALL MOLECULE IRE1-ALPHA INHIBITORS” (Cornell University, priority 2016, published 2017).
